Like-named read-outs stand apart in the source and are kept apart here. A value given as a limit tells only on which side of the number the result lay.

Holding throughout (format): cell-based
One data set has as its target T1, CXCR4 receptor (Homo sapiens, UniProt P61073).
T1 construct: expressed in transfected cells; host or cells: HEK-293 cells (stably expressing human macrophage scavenging receptor) transduced with human CXCR4 BacMam and Gqi5 BacMam
Kind of data set: Functional FLIPR assay (block of SDF-1 alpha induced [Ca2+]i change). The note with it: HEK-293 cells with human CXCR4 BacMam and Gqi5 BacMam; antagonism of SDF-1 alpha; read-out: Functional assay (pIC50) (converted). On the procedure: Human embryonic kidney (HEK-293) cells were maintained and harvested as described above. Cells were plated in 96-well, black clear bottom, poly-lysine coated plates at a concentration of 40,000 cells per well in a final volume of 100 ul containing human CXCR4 BacMam (MOI=25) and Gqi5 BacMam (MOI=12.5). The cells were incubated at 37° C., 5% CO2, 95% humidity for 24 h to allow for protein expression.
After the required incubation time the cells were washed once with 50 ul of fresh serum-free DMEM/F12 media containing probenicid. 50 ul of dye solution was then added to the cells (Calcium Plus Assay Kit Dye; Molecular Devices) was dissolved in 200 ml of the above probenicid/BSA containing media and incubated for 1 h. Cell plates were transferred to a Fluorometric Imaging Plate Reader (FLIPR). Upon addition the effect of the compounds on the change in [Ca^2+]i was examined to determine if the compounds were agonists or antagonists (ability to block SDF-1 alpha activity) at the CXCR4 receptor. IC50 values are determined and pKb values are calculated using the Leff and Dougall equation: KB=IC50/((2+([agonist]/EC50̂b)̂1/b -1) Where IC50 is that defined by the antagonist concentration-response curve [agonist] is the EC80 concentration of agonist used EC50 is that defined by the agonist concentration-response curve b is the slope of the agonist concentration-response curve.

The subject of data set [1] is HIV-1 gp160 (HXB2 strain) mediated fusion with HOS (hCXCR4/hCCR5/hCD4/pHIV-LTR-luciferase) cells. Put plainly: Cell/cell fusion assay (HEK-293 expressing HIV-1 tat, rev, gp160 with HOS hCXCR4/hCCR5/hCD4/pHIV-LTR-luciferase cells). Conditions: Homo sapiens, HEK293; luciferase readout after 24 h; read-out: Fusion assay (pIC50) (converted). From the text:
The complete coding sequences of HIV-1 tat (GenBank Accession No. X07861) and rev (GenBank Accession No. M34378) were cloned into pcDNA3.1 expression vectors containing G418 and hygromycin resistance genes, respectively. The complete coding sequence of the HIV-1 (HXB2 strain) gp160 envelope gene (nucleotide bases 6225-8795 of GenBank Accession No. K03455) was cloned into plasmid pCRII-TOPO. The three HIV genes were additionally inserted into the baculovirus shuttle vector, pFastBacMam1, under the transcriptional control of the CMV promoter. A construction of the pHIV-I LTR containing mutated NFkB sequences linked to the luciferase reporter gene was prepared by digesting pcDNA3.1, containing the G418 resistance gene, with Nru I and Bam HI to remove the CMV promoter. LTR-luc was then cloned into the Nru I/Bam HI sites of the plasmid vector. Plasmid preparations were performed after the plasmids were amplified in Escherichia coli strain DH5-alpha. The fidelity of the inserted sequences was confirmed by double-strand nucleotide sequencing using an ABI Prism Model 377 automated sequencer.
Recombinant BacMam baculoviruses were constructed from pFastBacMam shuttle plasmids by using the bacterial cell-based Bac-to-Bac system. Viruses were propagated in Sf9 (Spodoptera frugiperda) cells cultured in Hink's TNM-FH Insect media supplemented with 10% (v/v) fetal bovine serum and 0.1% (v/v) pluronic F-68 according to established protocols.
Human osteosarcoma (HOS) cells that naturally express human CXCR4 were transfected with human CCR5, human CD4 and the pHIV-LTR-luciferase plasmid using FuGENE 6 transfection reagent. Single cells were isolated and grown under selection condition in order to generate a stable HOS (hCXCR4/hCCR5/hCD4/pHIV-LTR-luciferase) clonal cell line. The cells were maintained in Dulbeccos modified Eagles media supplemented with 10% fetal calf serum (FCS), G418 (400 ug/ml), puromycin (1 ug/ml), mycophenolic acid (40 ug/ml), xanthine (250 ug/ml) and hypoxanthine (13.5 ug/ml) to maintain a selection pressure for cells expressing the LTR-luciferase, hCCR5 and hCD4, respectively. Human embryonic kidney (HEK-293) cells stably transfected to express the human macrophage scavenging receptor (Class A, type 1; GenBank Accession No. D90187), were maintained in DMEM/F-12 media (1:1) supplemented with 10% FCS and 1.5 ug/ml puromycin. The expression of this receptor by the HEK-293 cells enhances their ability to stick to tissue culture treated plasticware.
HEK-293 cells were harvested using enzyme-free cell dissociation buffer. The cells were resuspended in DMEM/F-12 media supplemented with 10% FCS and 1.5 ug/ml and counted. Tranductions were performed by direct addition of BacMam baculovirus containing insect cell media to cells. The cells were simultaneously transduced with BacMam baculovirus expressing HIV-1 tat, HIV-1 rev and HIV-1 gp160 (from the HXB2 HIV strain). Routinely an MOI of 10 of each virus was added to the media containing the cells. 2 mM butyric acid was also added to the cells at this stage to increase protein expression in transduced cells. The cells were subsequently mixed and seeded into a flask at 30 million cells per T225. The cells were incubated at 37° C., 5% CO2, 95% humidity for 24 h to allow for protein expression.
HEK and HOS cells were harvested in DMEM/F-12 media containing 2% FCS and DMEM media containing 2% FCS, respectively, with no selection agents added. Compounds were plated as 1 ul spots in 100% DMSO on a 96-well CulturPlate plates. HOS cells (50 ul) were added first to the wells, followed immediately by the HEK cells (50 ul). The final concentration of each cell type was 20,000 cells per well. Following these additions, the cells were returned to a tissue culture incubator (37° C.; 5% CO2/95% air) for an additional 24 h.
Following the 24 h incubation, total cellular luciferase activity was measured using the LucLite Plus assay kit (Packard, Meridien, Conn.). […]

The nature of data set [2]: Compound cytotoxicity in the absence of virus (CellTiter-Glo). The note with it: human; non-infected HOS cultures, cell viability; read-out: Cytotox (pIC50) (converted). Here is the method: (§1) Compounds were profiled against two HIV-1 viruses, the M-tropic (CCR5 utilizing) Ba-L strain and the T-tropic (CXCR4 utilizing) IIIB strain. Both viruses were propagated in human peripheral blood lymphocytes. Compounds were tested for there ability to block infection of the HOS cell line (expressing hCXCR4/hCCR5/hCD4/pHIV-LTR-luciferase) by either HIV-1 Ba-L or HIV-1 IIIB. Compound cytotoxicity was also examined in the absence of virus addition.
(§2) HOS cells (expressing hCXCR4/hCCR5/hCD4/pHIV-LTR-luciferase) were harvested and diluted in Dulbeccos modified Eagles media supplemented with 2% FCS and non-essential amino acid to a concentration of 60,000 cells/ml. The cells were plated into 96-well plates (100 ul per well) and the plates were placed in a tissue culture incubator (37° C.; 5% CO2/95% air) for a period of 24 h.
(§3) Subsequently, 50 ul of the desired drug solution (4 times the final concentration) was added to each well and the plates were returned to the tissue culture incubator (37° C.; 5% CO2/95% air) for 1 h. Following this incubation 50 ul of diluted virus was added to each well (approximately 2 million RLU per well of virus). The plates were returned to the tissue culture incubator (37° C.; 5% CO2/95% air) and were incubated for a further 96 h.
(§4) Following this incubation the endpoint for the virally infected cultures was quantified following addition of Steady-Glo Luciferase assay system reagent (Promega, Madison, Wis.). Cell viability or non-infected cultures was measured using a CellTiter-Glo luminescent cell viability assay system (Promega, Madison, Wis.). All luminescent readouts are performed on a Topcount luminescence detector (Packard, Meridien, Conn.).
(In general: ATP-based viability assays read luminescence as a measure of living cells.)

The subject of data set [3] is HIV-1 IIIB strain, T-tropic (CXCR4 utilizing). Kind of data set: HOS HIV-1 infectivity assay. Here is the method: as §1, §2, §3, §4
Setting [4] is: Human immunodeficiency virus 1, IIIB, HOS HIV anti-infectivity assay, strain not named in Table 2, read-out: Activity Level.
Setting [5] is: Human immunodeficiency virus 1, HOS cells, HIV-1 IIIB, 96 h, luciferase, read-out: HOS (3B).

T1 sequence (P61073 whole entry): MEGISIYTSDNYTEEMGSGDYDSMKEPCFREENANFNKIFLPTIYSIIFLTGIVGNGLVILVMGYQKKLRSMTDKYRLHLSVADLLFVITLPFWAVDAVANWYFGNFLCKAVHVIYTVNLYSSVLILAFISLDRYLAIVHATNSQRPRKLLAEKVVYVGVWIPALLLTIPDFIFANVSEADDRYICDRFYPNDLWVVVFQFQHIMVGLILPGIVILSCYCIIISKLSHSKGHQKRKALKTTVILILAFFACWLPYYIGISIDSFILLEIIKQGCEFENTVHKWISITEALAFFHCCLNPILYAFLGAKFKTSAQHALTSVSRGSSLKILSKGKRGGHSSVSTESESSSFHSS

Regarding `NCCCCN(Cc1cn2ccccc2n1)C1CCCc2cccnc21` (centres unmarked) [Example 1, N-(Imidazo[1,2-a]pyridin-2-ylmethyl)-N-(5,6,7,8-tetrahydro-8-quinolinyl)-1,4-butanediamine], the IC50 is 33.9 nM at CXCR4 receptor, 79.4 nM in data set [1], under 0.1 µM in data set [3] (setting [4]) and 0.042 µM in data set [3] (setting [5]). In addition, the IC50 at 96 h in data set [2] is over 100000 nM.
With `Cc1c(Br)ccc2nc(CN(CCCCN)C3CCCc4cccnc43)cn12` (centres unmarked) [Example 18, N-[(6-Bromo-5-methylimidazo[1,2-a]pyridin-2-yl)methyl]-N-(5,6,7,8-tetrahydro-8-quinolinyl)-1,4-butanediamine], the IC50 at CXCR4 receptor was 30.9 nM; in data set [1], 155 nM; in data set [3] (setting [4]), under 0.1 µM; in data set [3] (setting [5]), 0.088 µM. Besides, in data set [2], the IC50 at 96 h is over 100000 nM.
The matching figures for `NCCCCN(Cc1cn2c(F)cccc2n1)C1CCCc2cccnc21` (centres unmarked) [Example 14, N-[(5-Fluoroimidazo[1,2-a]pyridin-2-yl)methyl]-N-(5,6,7,8-tetrahydro-8-quinolinyl)-1,4-butanediamine]: 100 nM, 407 nM, under 0.1 µM, 0.091 µM and over 100000 nM.
In the case of `NCCCCN(Cc1cn2c(Cl)cccc2n1)C1CCCc2cccnc21` (centres unmarked) [Example 13, N-[(5-Chloroimidazo[1,2-a]pyridin-2-yl)methyl]-N-(5,6,7,8-tetrahydro-8-quinolinyl)-1,4-butanediamine], the IC50 at CXCR4 receptor is 40.7 nM; in data set [1] it was 91.2 nM; in data set [3] (setting [4]), under 0.1 µM; in data set [3] (setting [5]), 0.025 µM. For the same molecule, the IC50 at 96 h in data set [2] was over 100000 nM.
As to `CN1CCN(c2cccc3nc(CN(CCCCN)C4CCCc5cccnc54)cn23)CC1` (centres unmarked) [Example 24, N-{[5-(4-Methyl-1-piperazinyl)imidazo[1,2-a]pyridin-2-yl]methyl}-N-(5,6,7,8-tetrahydro-8-quinolinyl)-1,4-butanediamine], the IC50 on CXCR4 receptor was 41.7 nM; in data set [1], 4.9 nM; in data set [3] (setting [4]) it was under 0.1 µM; in data set [3] (setting [5]), 0.0036 µM. For the same molecule, the IC50 at 96 h in data set [2] was over 100000 nM.
With `NCCCCN(Cc1cn2c(N3CCOCC3)cccc2n1)C1CCCc2cccnc21` (centres unmarked) [Example 23, N-{[5-(4-Morpholinyl)imidazo[1,2-a]pyridin-2-yl]methyl}-N-(5,6,7,8-tetrahydro-8-quinolinyl)-1,4-butanediamine], the IC50 at CXCR4 receptor was 158 nM; in data set [1], 324 nM; in data set [3] (setting [4]), under 0.1 µM; in data set [3] (setting [5]), 0.077 µM. Also, the IC50 at 96 h in data set [2] is over 100000 nM.
On the same counts, the results for `Cc1cc(Br)cn2cc(CN(CCCCN)C3CCCc4cccnc43)nc12` (centres unmarked) [Example 19, N-[(6-Bromo-8-methylimidazo[1,2-a]pyridin-2-yl)methyl]-N-(5,6,7,8-tetrahydro-8-quinolinyl)-1,4-butanediamine] are 67.6 nM, 537 nM, 0.1 to 0.5 µM, 0.14 µM and over 100000 nM.
Consider `Cc1cccn2cc(CN(CCCCN)C3CCCc4cccnc43)nc12` (centres unmarked) [Example 2, N-[(8-Methylimidazo[1,2-a]pyridin-2-yl)methyl]-N-(5,6,7,8-tetrahydro-8-quinolinyl)-1,4-butanediamine], for which the IC50 on CXCR4 receptor is 53.7 nM; in data set [1] it was 324 nM; in data set [3] (Human immunodeficiency virus 1, IIIB, HOS, 96 h, read-out: HOS (3B) (μM)), 0.023 µM; in data set [3] (Human immunodeficiency virus 1, IIIB, read-out: Activity Level) it was under 0.1 µM. The IC50 at 96 h in data set [2] is over 100000 nM.
As for `Cc1ccc2nc(CN(CCCCN)C3CCCc4cccnc43)cn2c1` (centres unmarked) [Example 4, N-[(6-Methylimidazo[1,2-a]pyridin-2-yl)methyl]-N-(5,6,7,8-tetrahydro-8-quinolinyl)-1,4-butanediamine], the IC50 was 52.5 nM on CXCR4 receptor, 97.7 nM in data set [1], under 0.1 µM in data set [3] (setting [4]) and 0.057 µM in data set [3] (setting [5]). Moreover, the IC50 at 96 h in data set [2] was over 100000 nM.
With `N#Cc1ccc2nc(CN(CCCCN)C3CCCc4cccnc43)cn2c1` (centres unmarked) [Example 9, 2-{[(4-Aminobutyl)(5,6,7,8-tetrahydro-8-quinolinyl)amino]methyl}imidazo [1,2-a]pyridine-6-carbonitrile], the IC50 is 112 nM at CXCR4 receptor, 372 nM in data set [1], 0.1 to 0.5 µM in data set [3] (setting [4]) and 0.112 µM in data set [3] (setting [5]). The IC50 at 96 h in data set [2] was over 100000 nM.
